Source: US11754548B2, “Method of in vitro cellular assay, cell circuit board, and method of manufacturing cell circuit board” (RICOH COMPANY, LTD., priority 2019, dated 2023)

How the values were obtained:
[1] = system: cell population A (iCell GABANeurons) and cell population B (GABAergic Neurons from Healthy Donor), neural cells derived from iPS cells; assay: Action potential measurement (MEA, MED64 system) of the cell circuit board including an inhibitory GABAergic cell population, connected via neurites, treated with drug (Example 4); format: cell-based; conditions: 30 μM final concentration, 10 minutes at 37° C.; populations connected via neurites; FIG. 18
Procedure: A cell circuit board in which the cell population A and the cell population B were disposed to be spaced apart from each other on the board was prepared using the same method as in Example 1 except that frozen neural cells which are derived from iPS cells (iCell GABANeurons) and are commercially available from Cellular Dynamics International were used as the cell population A, and the same cells as in Example 1 (GABAergic Neurons from Healthy Donor) were used as the cell population B.
Using the same method as in Example 1, at the fourth week of the culture, action potentials detectable from the electrodes were measured for 5 minutes in a state in which the cell population A and the cell population B were connected via neurites. A raster plot that visualizes synchronized firing patterns is illustrated in FIG. 17. In addition, FIG. 16 illustrates a raster plot for visualizing firing patterns of respective cell populations cultured by plating on a board alone.
The mixture was allowed to stand for 10 minutes in a CO2 incubator at 37° C.
For respective cell populations in the above section “3.” which were treated with the drug, action potentials detectable from the electrodes were measured for 5 minutes with the MED64 system. The results are illustrated in FIG. 18.

[2] = system: cell population A (Mixed Neurons from Healthy Donor) and cell population B (GABAergic Neurons from Healthy Donor), neural cells derived from iPS cells; assay: Action potential measurement (MEA, MED64 system) of the cell circuit board with cell populations A and B connected via neurites, and after cutting the neurites, treated with drug (Example 2); format: cell-based
Procedure: Two types of frozen neural cell which are derived from iPS cells (GABAergic Neurons from Healthy Donor and Mixed Neurons from Healthy Donor) and are commercially available from Elixirgen Scientific were suspended in a medium and plated on a board including an electrode of a multi-electrode array (MEA; SCREEN Holdings Co., Ltd.) coated with 0.05% polyethyleneimine ([…]; manufactured by Sigma) and a 80 μg/mL laminin solution (manufactured by Sigma) in advance. Synchronous firing of the neural cells was checked to be induced by formation of a network after 3 weeks of the culture. A cell population containing more excitable cells and presenting synchronous firing in a short cycle was designated as a cell population A, and a cell population containing many suppressor cells and presenting synchronous firing in a long cycle was designated as a cell population B.
FIG. 4 is a diagram illustrating a test flow in Example 1. First, a board 5 to which partition members 8a and 8b, which are made of dimethylpolysiloxane (PDMS), and frame members 9a and 9b are respectively bonded was prepared so that a region including the cell population A (10) and a region including the cell population B (20) are separated. Next, on the board 5, two types of cell suspension each including the cell population A (10) and the cell population B (20) having different electrophysiological behaviors which were obtained in “1.” were plated in the respective regions surrounded by the frame members 9a and 9b while not mixing these cell populations. In a case where an area of the region was as large as more than 10 mm^2, respective cell suspensions were plated using a micropipette. In a case where an area was as small as 10 mm^2 or less, plating could not be performed manually, and therefore respective cell suspensions were plated using an ink jet bioprinter for cell discharge. […]
The cell population A and the cell population B were cultured for 4 weeks in a state in which they were connected via neurites (a state in which a neural network was formed), and action potentials detectable from the electrodes were measured for 5 minutes with an MED64 system (SCREEN Holdings Co., Ltd.). An electrical waveform was analyzed using software, BurstScope included in the MED64 system. […]
For respective cell populations in “2.” which were treated with the drug, action potentials detectable from the electrodes were measured for 5 minutes with the MED64 system. […]
The neurites between the cell population A and the cell population B were then cut as illustrated in FIG. 4. After cutting, the cells were cultured for 10 minutes in a CO2 incubator and stabilized, and then the action potential was measured again. […]

[3] = 10 μM final concentration, 10 minutes at 37° C., populations A and B connected via neurites, FIG. 8
[4] = 10 μM, neurites between A and B cut, 10 minutes stabilization, FIG. 9

For picrotoxin, the “cycle of the synchronous firing pattern compared with before drug treatment” value [1] was “significantly shorter cycle than that before the drug treatment” and the “synchronization between cell population A and cell population B” value [1] was “remained synchronized”.

In the case of `N[C@H](CCCP(=O)(O)O)C(=O)O` [D-AP5, D-(−)-2-amino-5-phosphonopentanoic acid], the “firing pattern of the cell population A (short-cycle firing)” value [2, 3] is reported as “firing in a short cycle disappeared”, the “synchronization of the firing pattern of cell population A with cell population B” value [2, 3] is reported as “became a firing pattern synchronized in the form of the same cycle and peak as those of the cell population B” and the “firing pattern of the cell population B after cutting the neurites” value [2, 4] is reported as “does not change”. The “synchronous firing period of the cell population A after cutting the neurites” value [2, 4] was “greatly prolonged”.
